Test: Brain levels (Kp and Kpu,u) in mice after oral administration
Type: in vivo, CDI mice
Details: 20 mpk PO; for kpu, u: kp corrected with mouse plasma protein binding and mouse brain homogenate binding; for Kp at 24 h: CDI, mouse, 20 mg/kg, whole brain AUC over 24 h divided by plasma AUC
Experimental: Brain Levels (Kp and Kpu,u)—NLRP3
The in vivo total brain to plasma ratio was assessed in CDI mice after oral administration of the compound. Blood was collected at several timepoints up to 24 h, and transferred into plastic micro centrifuge tubes with EDTA-K2 as anticoagulant. Blood samples were centrifuged at 4000 g for 5 minutes at 4° C. to obtain plasma, then immediately frozen and stored at −75±15° C. prior to analysis. Animals were terminally anaesthetized with a rising concentration of CO2 gas at about 1 minute. At selected timepoints, whole brains were removed from the skull, rinsed in cold PBS to remove blood, dried with clean gauze, then frozen in liquid nitrogen and kept at −75±15° C. before analysis. At the time of analysis, brain samples were homogenized with PBS by tissue weight (g) to PBS volume (mL) ratio 1:3. Plasma and brain drug levels were quantified by LC/MS/MS on a AB Sciex Triple Quad 5500+ instrument, after separation on a HALO 160A ES-C18, 2.7 μm 2.1×50 mm column. Quantitation was performed using a calibration curve prepared in blank plasma or blank brain homogenate. The software WinNonlin (Phoenix™) was used for pharmacokinetic analysis from the concentrations versus time data, including the AUCinf and AUClast. The Kp ratio (total brain concentration over total plasma concentration) was calculated as (AUCtot,hr)/(AUCtot,pl).
The unbound brain exposure was assessed as Kpuu, which is the free brain/free plasma concentration ratio (Cu,hr/Cu,pl). The Cu,bt/Cu,pl ratios were obtained from in vivo total brain to plasma ratios (Ctot,br/Ctot,pl) by using in vitro determined Fu,br and Fu,pl.
Plasma protein binding and brain homogenate protein binding were measured by equilibrium dialysis in a HTDialysis plate. The dialysis membranes were soaked in ultrapure water for 60 minutes to separate strips, then in 20% ethanol for 20 minutes, finally in dialysis buffer for 20 minutes. The dialysis set up was assembled according to the manufacturer's instruction. Each cell received 150 μL of plasma or brain homogenate spiked with 1 μM of compound, and dialyzed against an equal volume of dialysis buffer (PBS). The dialysis plate was sealed and incubated in an incubator at 37° C. with 5% CO2 at 100 rpm for 6 hours. At the end of incubation, compound concentration was measured in both chambers by LC-MS/MS on a Triple Quad™ 5500 from AB Inc after separation on a XSelect Hss T3 2.5μ (2.1×30 mm) column. Free fraction (Fu) was calculated as (Peak Area Ratio buffer chamber/Peak Area Ratio plasma chamber).
Finally, Kpuu was calculated as (AUCtot,br×Fu,bt)/(AUCtot,pl×Fu,pl).
Table 3 assigns each compound a code for kp and kpu,u values: A or B. According to the code, A represents a value of >0.3 and B represents a value of <0.3. […] The kpu,u was then calculated upon correcting this kp value with mouse plasma protein binding and mouse brain homogenates binding.

Row | kpu, u | Kp at 24 h | SMILES
1 | B (B represents a value of <0.3) |  | Oc1cc(Cl)ccc1-c1nnc(N[C@H]2CCOC2)c2cnccc12 [Compound 7, (S)-5-chloro-2-(4-((tetrahydrofuran-3-yl)amino)pyrido[3,4-d]pyridazin-1-yl)phenol, reference compound]
2 | A (A represents a value of >0.3) |  | CN1CCO[C@@H](CNc2nnc(-c3ccc(C(F)(F)F)cc3O)c3ccncc23)C1 [Compound 6, (S)-2-(4-(((4-methylmorpholin-2-yl)methyl)amino)pyrido[3,4-d]pyridazin-1-yl)-5-(trifluoromethyl)phenol]
3 | A (A represents a value of >0.3) |  | CC1(C)C[C@@H](Nc2nnc(-c3ccc(Cl)cc3O)c3ccncc23)CCO1 [Compound 4, (S)-5-chloro-2-(4-((2,2-dimethyltetrahydro-2H-pyran-4-yl)amino)pyrido[3,4-d]pyridazin-1-yl)phenol]
4 | A (A represents a value of >0.3) | > 0.3 | [2H]C([2H])([2H])OC(C)(C)CNc1nnc(-c2ccc(C(F)F)cc2O)c2ccncc12 [Compound 2, 5-(difluoromethyl)-2-(4-((2-(methoxy-d3)-2-methylpropyl)amino)pyrido[3,4-d]pyridazin-1-yl)phenol]
5 | A (A represents a value of >0.3) | > 0.3 | Cc1ccc(-c2nnc(N[C@H]3COC(C)(C)C3)c3cnccc23)c(O)c1 [Compound 5, (R)-2-(4-((5,5-dimethyltetrahydrofuran-3-yl)amino)pyrido[3,4-d]pyridazin-1-yl)-5-methylphenol]
6 | A (A represents a value of >0.3) |  | CC1(C)COC[C@@H]1Nc1nnc(-c2ccc(Cl)cc2O)c2ccncc12 [Compound 1, (R)-5-chloro-2-(4-((4,4-dimethyltetrahydrofuran-3-yl)amino)pyrido[3,4-d]pyridazin-1-yl)phenol]
7 | B (B represents a value of <0.3) | < 0.3 | OCC1(CNc2nnc(-c3ccc(Cl)cc3O)c3ccncc23)CC1 [Compound 8, 5-chloro-2-(4-(((1-(hydroxymethyl)cyclopropyl)methyl)amino)pyrido[3,4-d]pyridazin-1-yl)phenol, reference compound]
8 | A (A represents a value of >0.3) | > 0.3 | CC1(C)COCC[C@H]1Nc1nnc(-c2ccc(Cl)cc2O)c2ccncc12 [Compound 3, (R)-5-chloro-2-(4-((3,3-dimethyltetrahydro-2H-pyran-4-yl)amino)pyrido[3,4-d]pyridazin-1-yl)phenol]
